Measured values: patent publication US8412459B2, “Method for determining the allergic potential of a compound” (Vlaamse Instelling Voor Technologisch Onderzoek (VITO), priority 2006, dated 2013)

Tests used:
CD34-DCs = assay: RT-PCR gene expression in CD34-DCs; classification model (lda + quadratic discriminant) on NINJ, PBEF1, CCR7, CREM, leave-one-compound-out cross validation; settings: LFC of NINJ, exposure 6, 12 and 24 h at concentration of EC20, on average 3 individuals, test compound left out of training
Method: Expression of every gene was measured after exposure to each of the 9 different compounds (control solvent). For each compound on average 3 different unrelated individuals were used for exposure. On average sample from 3 different individuals were used per compound. Each exposure consisted of 3 exposure times (6, 12 and 24 hours) and three different concentrations were used for each exposure experiment.
To quantify the separation of the two groups one can use e.g. a linear discriminant analysis (lda). This method determines the direction(s) in space (in our case one direction in a 3D space) in which the discrimination between the groups is maximal. […] Mathematically, this projection is a linear combination of the LFC at 6, 12 and 24 hours; this linear combination of LFC's will be called the feature value. On this feature data per gene an F-test can be performed to assess the significance (p-value) of the separation.
One can now set a threshold and only retain those genes with a p-value below it.
To this end the lda was again used to find the two dimensional subspace in which the separation between the two groups is optimal. The variables on the two axes of this space are now a linear combination of the four feature values of the four genes. We will call the x- and y-variable respectively feature value 1 and 2. Note that these feature values are trained by the data.
For this quadratic model, the decision boundary separating the two groups is a conic section, in this case an ellipse.
First one chooses one of the 9 compounds and removes the corresponding measurements from the dataset.
Next one repeats the lda optimization and the construction of a quadratic discriminant model as described in the previous step.
Next the data of the removed compound are fed into the classification model and used to predict the class to which the compound belongs.

[1] = a priori known, from literature / in vivo tests; cited from earlier work

Molecule | class predicted by the classification model in cross validation (sensitizer / non-sensitizer) (CD34-DCs) | known sensitizing classification / strength [1]
C[S+](C)[O-] [DMSO, dimethylsulfoxide] | non-sensitizers | –
O=[N+]([O-])c1ccc(Cl)c([N+](=O)[O-])c1 [DNCB, 1-chloro-2,4-dinitrobenzene] | – | strong sensitizer
C=CCc1ccc(O)c(OC)c1 [Eugenol, 2-Methoxy-4-(2-propenyl)phenol] | – | weak sensitizing capacity
CCC[CH2][Sn]([Cl])([CH2]CCC)[CH2]CCC [TBT, Tributyltin chloride] | non-sensitizers | –
tritonX-100 | non-sensitizers | –
